Measured values reported in patent US11149062B2, “HDAC inhibitors and methods of treatment using the same” (UWM Research Foundation, Inc., priority 2015, dated 2021).

Experiments:
DU-145 (prostate cancer) = assay: MTT antiproliferative assay, DU-145; type: cell-based; conditions: Homo sapiens, DU-145; MTT, 48 h; read-out: Antiproliferative Activity GI50, Prostate DU-145
Method: (§1) Briefly, the tumor cells (1×10^4 cells/well) were seeded in 96-well microtiter plates and incubated for 24 h at 37° C. Following incubation, the media was replaced with fresh media containing the above compounds at concentrations ranging from 1 μM to 1 pM diluted in DMSO and incubated for an additional 48 h. Drugs were run in duplicate or triplicate and control cells received fresh media with DMSO concentration equivalent to the treatment groups. […] After aspirating the culture medium, 200 μL of DMSO was added to dissolve the precipitate and the resulting solution was measured for absorbance at 570 nm with a reference wavelength of 690 nm using a microplate reader (Infinite M200 Pro TECAN).

BALB/c mice = assay: in vivo; conditions: BALB/c, mouse, in vivo, ip, 2 weeks
COLO-205 (colon cancer) = assay: MTT antiproliferative assay, COLO-205; type: cell-based; conditions: Homo sapiens, COLO 205; MTT, 48 h; read-out: Antiproliferative Activity GI50, Colon COLO-205
Method: as §1

[1] = tested on: MDA-MB-231 (breast cancer); assay: MTT antiproliferative assay, MDA-MB-231; type: cell-based; conditions: Homo sapiens, MDA-MB-231; MTT, 48 h; read-out: Antiproliferative Activity GI50, Breast MDA-MB-231
Method: as §1

SKOV-3 (ovarian) = assay: MTT antiproliferative assay, SKOV-3; type: cell-based; conditions: Homo sapiens, SK-OV-3; MTT, 48 h; read-out: Antiproliferative Activity GI50, Ovarian SKOV-3
Method: as §1

COC(=O)[C@H]1CSSCC/C=C/C(O)CC(=O)N[C@H](CCSC)C(=O)N1 (stereo partly drawn) [TDF3m, Methyl (4S,7R,12E)-11-hydroxy-7-[2-(methylsulfanyl)ethyl]-6,9-dioxo-1,2-dithia-5,8-diazacyclopentadec-12-ene-4-carboxylate]
GI50 (DU-145 (prostate cancer)): 300 nM | MTD (toxicity in healthy BALB/c mice) (BALB/c mice): >200 mg/kg | GI50 (COLO-205 (colon cancer)): 900 nM | GI50 [1]: 600 nM | GI50 (SKOV-3 (ovarian)): 500 nM
